# Experimental data published in PMC12384454, “Study of the Lipophilicity of Tetracyclic Anticancer Azaphenothiazines” (Biomolecules, 2025).
# “Also recorded” adds a separate entry of the source. Read-outs that look alike come from different tables or passages of the source.
# Legend:
# A549 cells = details: cited from earlier work; for IC50: MTT assay; for SI A549: selectivity index vs HaCaT
# MDA = system: MDA; design: method as in earlier work; details: cited from earlier work; for IC50: MTT assay; for SI MDA: selectivity index vs HaCaT
# HaCaT cells = details: cited from earlier work; for IC50: MTT assay, normal cells; for cytotoxic effects on HaCaT cells: in words
# MiaPaCa-2 = system: MiaPaCa-2; design: method as in earlier work; details: cited from earlier work; for IC50: MTT assay; for SI MiaPaCa-2: selectivity index vs HaCaT
# PC3 = system: PC3; design: method as in earlier work; details: cited from earlier work; for IC50: MTT assay; for SI PC3: selectivity index vs HaCaT
# HCT-116 cells = details: cited from earlier work; for IC50: MTT assay, read-out: IC50 HCT116; for SI HCT116: selectivity index vs HaCaT
# [1] = RP-TLC lipophilicity (RM0, log PTLC, C0), silica gel RP-18F254, acetone/TRIS buffer pH 7.4; assay type: physicochemical; details: for RM0: RP-TLC, RM extrapolated to 0% acetone, TRIS buffer pH 7.4; for C0: chromatography hydrophobic index, C0 = −RM0/b; for chromatographic logP / log PTLC: from RM0 by calibration curve log PTLC = 1.2862RM0 + 0.2061
# Experimental: In connection with this, in the next stage of the study, the parameters of lipophilicity of the tested compounds were determined experimentally. […] This technique was used to determine the retardation coefficient Rf for each compound in eight mobile phases consisting of acetone and Tris buffer in different volume ratios (50–85% acetone). Next, the Rf values were converted to the chromatographic parameter RM, and then the obtained values were extrapolated to 0% acetone content in the mobile phase obtaining the lipophilicity parameter RM0 (Table S2).
# The parameter RM0 can be correlated to an experimental log P lipophilicity parameter of chemical molecules (log PTLC) by applying a calibration curve. The calibration curve was obtained by determining the Rf value for standard substances with a known log Plit value using the RP-TLC method under conditions analogous to those of the tested substances. After calculating the RM and RM0 values, the dependence of the log Plit parameter on the experimentally obtained RM0 values for standards was determined (Table 2).
# The chromatographic parameter of lipophilicity was determined by means of Soczewiński–Wachtmeister’s method. […] The acetone ratio was 50 to 85% (v/v) in increments of 5%. The tested compounds in the form of an ethanol solution at a concentration of 2.0 mg/mL each were spotted on chromatographic plates at an amount of 2 µL each. Before analysis, the chromatography chamber (Camag, Switzerland) was saturated with the mobile phase (50 mL) for 30 min. After development at 20 ± 2 °C and subsequent drying, the chromatograms were observed under UV light at 254 nm by using a Camag UV lamp (Muttenz, Switzerland). Each analysis was performed in triplicate. The average value of the retardation factor (Rf) was used to calculate RM using Equation (1):(1) RM=log(1−Rf/Rf)
# In addition, the chromatographic parameter of lipophilicity RM0 and b value allowed the determination of the chromatography hydrophobic index C0 by using the following formula:(3) C0=− RM0/b
# [2] = system: standard strains of staphylococci; details: mainly against standard strains of staphylococci; cited from earlier work
SMILES,IC50 (A549 cells) [µM],SI A549 (A549 cells),SI A549 (A549 cells; listed as doxorubicin),IC50 (MDA) [µM],SI MDA (MDA),IC50 (HaCaT cells) [µM],IC50 (MiaPaCa-2) [µM],SI MiaPaCa-2 (MiaPaCa-2),IC50 (PC3) [µM],SI PC3 (PC3),IC50 (HCT-116 cells) [µM],SI HCT116 (HCT-116 cells),RM0 [1],C0 [1],chromatographic logP [1],antibacterial activity [2],log PTLC [1],cytotoxic effects on HaCaT cells (HaCaT cells)
"COc1cccc2c1C(=O)c1c(O)c3c(c(O)c1C2=O)C[C@@](O)(C(=O)CO)C[C@@H]3O[C@H]1C[C@H](N)[C@H](O)[C@H](C)O1 [DX, doxorubicin, reference compound]",0.6 ± 0.2,0.14,0.14–0.15,0.8 ± 0.1,0.15,0.3 ± 0.1,0.6 ± 0.2,0.14,0.8 ± 0.1,0.15,0.59 ± 0.02,0.5,,,,,,
"O=C(O)c1ccccc1 [benzoic acid, reference compound]",,,,,,,,,,,,,1.16,,,,,
CCN(CC)CCN1c2cc(Cl)ccc2Sc2cc3ccccc3nc21 [compound 1],27.2 ± 8.4,3.7,,< 100,1.0,< 100,,,,,,,3.98,69.58,5.33,moderate antibacterial activity,,
CN(C)CCCN1c2cc(Cl)ccc2Sc2cc3ccccc3nc21 [compound 2],8.2,7.6,,52.1 ± 2.7,1.2,62.3 ± 2.5,40.2 ± 0.7,1.6,52.1 ± 7.1,1.2,1.6,,3.77,70.60,,moderate antibacterial activity,5.05,no cytotoxic effects
Clc1ccc2c(c1)N(CCN1CCCC1)c1nc3ccccc3cc1S2 [compound 3],17.4 ± 4.1,5.7,,77.1 ± 1.6,1.3,< 100,57.4 ± 9.6,1.7,77.1 ± 9.4,1.3,17.5 ± 1.4,5.7,3.96,73.88,5.29,moderate antibacterial activity,,
Clc1ccc2c(c1)N(CCN1CCCCC1)c1nc3ccccc3cc1S2 [compound 4],63.8 ± 8.5,1.6,,< 100,1.0,< 100,,,,,,,4.01,73.04,5.36,,,
CN1CCCCC1CCN1c2cc(Cl)ccc2Sc2cc3ccccc3nc21 (stereo not drawn) [compound 5],16 ± 4.2,1,,16.7 ± 1.1,0.9,12.7 ± 1.9,24.3 ± 3.5,0.5,16.7 ± 1.8,0.7,7.7,1.6,4.20,84.51,,,5.61,
O=C1c2ccccc2C(=O)N1CCCN1c2cc(Cl)ccc2Sc2cc3ccccc3nc21 [compound 6],,,,,,,,,,,,,4.12,82.90,5.5,,,
CC(=O)NCCCN1c2cc(Cl)ccc2Sc2cc3ccccc3nc21 [compound 7],24.6 ± 6.1,4.1,,76.6 ± 8.9,1.3,< 100,,,,,,,2.72,76.19,3.7,,,
CCOC(=O)NCCCN1c2cc(Cl)ccc2Sc2cc3ccccc3nc21 [compound 8],86.6 ± 0.8,1.1,,< 100,1.0,< 100,,,,,,,3.76,81.74,,,5.04,
CS(=O)(=O)NCCCN1c2cc(Cl)ccc2Sc2cc3ccccc3nc21 [compound 10],,1.0,,< 100,1.0,< 100,,,,,,,3.37,76.24,4.53,,,
Cc1ccc(S(=O)(=O)NCCCN2c3cc(Cl)ccc3Sc3cc4ccccc4nc32)cc1 [compound 11],,1.0,,< 100,1.0,< 100,,,,,,,4.59,79.96,6.1,,,
O=C1c2ccccc2C(=O)N1CCCCN1c2cc(Cl)ccc2Sc2cc3ccccc3nc21 [compound 12],,,,,,,,,,,,,4.41,85.47,5.88,,,
CC(=O)NCCCCN1c2cc(Cl)ccc2Sc2cc3ccccc3nc21 [compound 13],82.3 ± 6.2,1.2,,< 100,1.0,< 100,,,,,,,3.11,77.17,4.21,,,
CCOC(=O)NCCCCN1c2cc(Cl)ccc2Sc2cc3ccccc3nc21 [compound 14],,1.0,,< 100,1.0,< 100,,,,,,,4.06,82.86,5.43,,,
CS(=O)(=O)NCCCCN1c2cc(Cl)ccc2Sc2cc3ccccc3nc21 [compound 16],30.5 ± 8.3,3.3,,< 100,0.2,< 100,98.4 ± 5.6,1.0,,1.0,0.7,143,3.65,76.36,4.9,,,no cytotoxic effects; also recorded: lack of toxicity to non-cancer cells
Cc1ccc(S(=O)(=O)NCCCCN2c3cc(Cl)ccc3Sc3cc4ccccc4nc32)cc1 [compound 17],9.45,10.5,,< 100,1.0,< 100,,1.0,48.6 ± 4.7,2.0,,,4.68,80.41,6.22,,,
"CN(C)CCCN1c2ccccc2Sc2ccc(Cl)cc21 [compound 18, chlorpromazine, reference compound]",,,,,,,,,,,,,3.41,67.79,4.59,,,
